Laboratory results: patent US9895410B2, “Methods for preventing and treating oral cancers” (Cornell University, priority 2013, dated 2018)

Tests used:
[1] = system: several mammalian cell types; settings: energy-independent manner; cited from earlier work
[2] = system: mouse tongue tumors induced by 4-NQO; assay: 4-NQO mouse model of oral carcinogenesis: gross tongue lesion multiplicity and severity grading; type: in vivo, mouse (C57BL/6)
Experimental: A mouse model of oral squamous cell carcinomas or oral cancers was developed by exposing the animals to the carcinogen 4-nitroquinoline 1-oxide (4-NQO) via drinking water.
(§1) Six-week old wild-type C57BL/6 female mice (purchased from the Jackson Laboratory) were used for this study. The mice were maintained on a normal chow (Lab-diet with constant nutrition, Lab-Diet Co, St. Louis, Mo.) and under controlled conditions with a 12 hour light/dark cycle. […] Mouse body weights and precancerous and cancerous lesions were monitored in the oral cavities at different times for up to 15 weeks, or until signs of sickness or weight loss. […]
(§2) Tissue dissection, lesion grade measurement, and pathological diagnosis. […] Gross lesions were identified and photographed, and visible cancerous lesions on the tongues were counted. The multiplicity of lesions (number of lesions per mouse) was assessed with a 10× magnification. The severity of gross lesions on the tongues was quantified by a grading system that included 0 (no lesion), 1 (mild lesion), 2 (intermediate lesion), 3 (severe lesion), and 4 (most severe lesion) in a double blinded manner. […]

[3] = system: mouse tongue tumors induced by 4-NQO; assay: 4-NQO mouse model: histological diagnosis of squamous neoplasia on H&E stained tongue sections; type: in vivo, mouse (C57BL/6); settings: 4-NQO 10 weeks, then peptide 2.5 mg/kg/day s.c. 2 days/week for 15 weeks; four mice per group; 75% in 4-NQO+saline; p=0.07
Experimental: as §1, with “cycle. The mice were randomly divided into an experimental group in which mice received drinking water that contained 100 μg/ml 4-nitroquinoline 1-oxide (4-NQO) (Sigma, St. Louis, Mo.) and a control group in which mice received drinking water that contained propylene glycol (vehicle for 4-NQO). The treatment lasted for 10 weeks after which the mice received regular drinking water.” for “cycle.”
as §2

PCNA = assay: Immunohistochemistry of mouse tongue sections for PCNA; type: in vivo, mouse (C57BL/6); settings: 4-NQO + peptide vs 4-NQO+saline; tongue regions with and without visible lesions; four mice per group
Experimental: as §1, with “cycle. The mice were randomly divided into an experimental group in which mice received drinking water that contained 100 μg/ml 4-nitroquinoline 1-oxide (4-NQO) (Sigma, St. Louis, Mo.) and a control group in which mice received drinking water that contained propylene glycol (vehicle for 4-NQO). The treatment lasted for 10 weeks after which the mice received regular drinking water.” for “cycle.”
(§3) Immunohistochemistry. […] The sections were incubated with secondary antibodies (1:200, anti-mouse IgG from the M.O.M kit for p16; ready to use anti-rabbit IgG from the Invitrogen SuperPicture kit for Cox-2; and ready to use anti-mouse IgG from the Dako Envision™ HRP (DAB+) kit for mouse PCNA). […] Four to five representative areas of each mouse tongue section were photographed and analyzed.

p16 = assay: Immunohistochemistry of mouse tongue sections for p16; type: in vivo, mouse (C57BL/6); settings: peptide injections after 4-NQO treatment vs 4-NQO+saline; four mice per group
Experimental: as §1, with “cycle. The mice were randomly divided into an experimental group in which mice received drinking water that contained 100 μg/ml 4-nitroquinoline 1-oxide (4-NQO) (Sigma, St. Louis, Mo.) and a control group in which mice received drinking water that contained propylene glycol (vehicle for 4-NQO). The treatment lasted for 10 weeks after which the mice received regular drinking water.” for “cycle.”
as §3

PTGS2 = assay: Immunohistochemistry of mouse tongue sections for PTGS2 (Cox-2); type: in vivo, mouse (C57BL/6); settings: 4-NQO + peptide vs 4-NQO+saline; four mice per group
Experimental: as §1, with “cycle. The mice were randomly divided into an experimental group in which mice received drinking water that contained 100 μg/ml 4-nitroquinoline 1-oxide (4-NQO) (Sigma, St. Louis, Mo.) and a control group in which mice received drinking water that contained propylene glycol (vehicle for 4-NQO). The treatment lasted for 10 weeks after which the mice received regular drinking water.” for “cycle.”
as §3

| Substance | penetration of the plasma membrane [1] | average number of cancerous tongue lesions per mouse (multiplicity) ([2]; 4-NQO 100 μg/ml in drinking water 10 weeks, then peptide 2.5 mg/kg/day s.c. on 2 days each week for 15 weeks, 10 mice/group, p<0.05 vs 4-NQO+saline (6.5±2.9)) | percentage of less severe tongue lesions of grades 0-2 ([2]; 4-NQO 10 weeks, then peptide 2.5 mg/kg/day s.c. 2 days/week for 15 weeks, grading 0-4, p<0.05 vs 4-NQO+saline (Fisher's exact test)) [%] | percentage of mice that developed severe dysplasia, carcinoma in situ, and invasive carcinoma [3] [%] | PCNA positive cells in tongue epithelium (PCNA) | p16 protein levels in tongue epithelium (p16) | PTGS2 protein levels in tongues (PTGS2) |
| --- | --- | --- | --- | --- | --- | --- | --- |
| 2′,6′-Dmt-D-Arg-Phe-Lys-NH2 | readily penetrates the plasma membrane |  |  |  |  |  |  |
| D-Arg-2′,6′-Dmt-Lys-Phe-NH2 |  | 3.3±2.2 | 100 | 25 | obvious lower numbers of PCNA positive cells | greatly limited the 4-NQO-induced decrease in p16 protein levels | greatly reduced levels in PTGS2 protein |
